Assay results taken from US9169241B2, “Quinolinyloxyphenylsulfonamides” (Max-Planck-Gesellschaft Zur Forderung der Wissenschaften …, priority 2009, dated 2015).

How the values were obtained:
Type in all cases: cell-based
HT29 = assay: Cell vitality assay (ATP assay, CellTiter-Glo); conditions: Homo sapiens, HT-29, Table IIc
Method in brief: (§1)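 Viability is estimated from cellular ATP after 72 h of compound treatment at 1000 cells per well. The dilution series runs 12.5, 6.25, 3.125, 1.56, 0.78, 0.39 and 0.195 μM. Half-maximal values are expressed against DMSO-treated wells.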

DU145 = assay: Cell vitality assay (ATP assay, CellTiter-Glo); conditions: Homo sapiens, DU-145, Table IIb
Method in brief: as §1

A549 = assay: Cell vitality assay (ATP assay, CellTiter-Glo); conditions: Homo sapiens, Table IIc
Method in brief: as §1

Panc-1 = assay: Cell vitality assay (ATP assay, CellTiter-Glo); conditions: Homo sapiens, Table IIb
Method in brief: as §1

MDA-MB435s = assay: Cell vitality assay (ATP assay, CellTiter-Glo); conditions: Homo sapiens, MDA-MB-435S, Table IIc
Method in brief: as §1

MiaPaca-2 = assay: Cell vitality assay (ATP assay, CellTiter-Glo); conditions: Homo sapiens, MIA PaCa-2, Table IIb
Method in brief: as §1

PC3 [1] = assay: Cell vitality assay (ATP assay, CellTiter-Glo); conditions: Homo sapiens, PC-3, Table IIb
Method in brief: as §1

Aspc-1 = assay: Cell vitality assay (ATP assay, CellTiter-Glo); conditions: Homo sapiens, ASPC1, Table IIb
Method in brief: as §1

786-0 = assay: Cell vitality assay (ATP assay, CellTiter-Glo); conditions: Homo sapiens, Table IIb
Method in brief: as §1

U373 [2] = assay: Cell vitality assay (ATP assay, CellTiter-Glo); conditions: Homo sapiens, U373 MG, Table IIc
Method in brief: as §1

H460 = assay: Cell vitality assay (ATP assay, CellTiter-Glo); conditions: Homo sapiens, NCI-H460, Table IIc
Method in brief: as §1

A172 = assay: Matrigel outgrowth assay/branching assay; conditions: Homo sapiens, A 172, Table Vb, read-out: Total branching inhibition in Matrigel A172
Method in brief: (§2)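 Cells (5000/well) were seeded onto polymerized 3 mg/ml Matrigel with compound at 3.125, 1.56 or 0.78 μM versus DMSO. Branching was imaged by inverted microscopy (5× objective) at 48, 72 and 96 h. Only concentrations giving total branching inhibition scored positive.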

NCI-H1299 = assay: Matrigel outgrowth assay/branching assay; conditions: IC100, NCI-H1299; Table Vb
Method in brief: as §2

U118 = assay: Matrigel outgrowth assay/branching assay; conditions: Table Vb, read-out: Total branching inhibition in Matrigel U118
Method in brief: as §2

PC3 [3] = assay: Matrigel outgrowth assay/branching assay; conditions: IC100, PC3; Table Vb
Method in brief: as §2

SF126 = assay: Matrigel outgrowth assay/branching assay; conditions: Homo sapiens, SF-126, Table Vb, read-out: Total branching inhibition in Matrigel SF126
Method in brief: as §2

U87MG = assay: Matrigel outgrowth assay/branching assay; conditions: IC100, U87MG; Table Vb
Method in brief: as §2

SK-MEL28 = assay: Matrigel outgrowth assay/branching assay; conditions: IC100, SK-MEL28; Table Vb
Method in brief: as §2

U373 [4] = assay: Matrigel outgrowth assay/branching assay; conditions: IC100, U373; Table Vb
Method in brief: as §2

U138 = assay: Matrigel outgrowth assay/branching assay; conditions: IC100, U138; Table Vb
Method in brief: as §2

cells = assay: Boyden chamber migration assay (Table VI); conditions: Hs578T cells, 16 h migration
Method in brief: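 Migration read-out is a count of fixed cells on the underside of an […] insert membrane after 16 h. Chemoattractant was medium with 10% FCS in the lower chamber; 20000 cells started in serum-free medium with 0.1% BSA above, and those left on top were removed by swab.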

## COc1cc2c(Oc3ccc(NS(=O)(=O)c4cc(F)ccc4F)cc3F)ccnc2cc1OCCCN1CCCCC1 [Example 1, 2,5-Difluoro-N-{3-fluoro-4-[6-methoxy-7-(3-piperidin-1-yl-propoxy)-quinolin-4-yloxy]-phenyl}-benzenesulfonamide]
HT29
  IC50: ≤ 12.5 µM
DU145
  IC50: ≤ 12.5 µM
A549
  IC50: ≤ 12.5 µM
Panc-1
  IC50: 12.5 to 50 µM
MDA-MB435s
  IC50: ≤ 12.5 µM
MiaPaca-2
  IC50: ≤ 12.5 µM
PC3 [1]
  IC50: ≤ 12.5 µM
Aspc-1
  IC50: ≤ 12.5 µM
786-0
  IC50: 12.5 to 50 µM
U373 [2]
  IC50: ≤ 12.5 µM
H460
  IC50: ≤ 12.5 µM
A172
  IC100: ≤ 12.5 µM
NCI-H1299
  Total branching inhibition in Matrigel NCI-H1299: ++ (IC100≦12.5 μM)
U118
  IC100: ≤ 12.5 µM
PC3 [3]
  Total branching inhibition in Matrigel PC3: ++ (IC100≦12.5 μM)
SF126
  IC100: ≤ 12.5 µM
U87MG
  Total branching inhibition in Matrigel U87MG: + (IC100>12.5 μM)
SK-MEL28
  Total branching inhibition in Matrigel SK-MEL28: ++ (IC100≦12.5 μM)
U373 [4]
  Total branching inhibition in Matrigel U373: ++ (IC100≦12.5 μM)
U138
  Total branching inhibition in Matrigel U138: ++ (IC100≦12.5 μM)

## COc1cc2c(Oc3ccc(NS(=O)(=O)c4ccccc4[N+](=O)[O-])cc3F)ccnc2cc1OCCCN1CCCCC1 [Example 7, N-{3-Fluoro-4-[6-methoxy-7-(3-piperidin-1-yl-propoxy)-quinolin-4-yloxy]-phenyl}-2-nitro-benzenesulfonamide]
A172
  IC100: > 12.5 µM
U118
  IC100: ≤ 12.5 µM
SF126
  IC100: ≤ 12.5 µM
cells; Homo sapiens, Hs-578T, 16 h
  IC50: ≤ 5 µM

## COc1cc2c(Oc3ccc(NS(=O)(=O)c4cccc(-c5ccccc5)c4)cc3F)ccnc2cc1OCCCN1CCCCC1 [Example 8, Biphenyl-3-sulfonic acid {3-fluoro-4-[6-methoxy-7-(3-piperidin-1-yl-propoxy)-quinolin-4-loxy]-phenyl}-amide]
A172
  IC100: ≤ 12.5 µM
U118
  IC100: ≤ 12.5 µM
SF126
  IC100: ≤ 12.5 µM
cells; Homo sapiens, Hs-578T, 16 h
  IC50: ≤ 5 µM

## COc1cc2c(Oc3ccc(NS(=O)(=O)c4cccc(Oc5ccccc5)c4)cc3F)ccnc2cc1OCCCN1CCCCC1 [Example 10, N-{3-Fluoro-4-[6-methoxy-7-(3-piperidin-1-yl-propoxy)-quinolin-4-yloxy]-phenyl}-3-phenoxy-benzenesulfonamide]
A172
  IC100: ≤ 12.5 µM
U118
  IC100: ≤ 12.5 µM
SF126
  IC100: ≤ 12.5 µM
cells; Homo sapiens, Hs-578T, 16 h
  IC50: ≤ 5 µM

## COc1cc2c(Oc3ccc(NS(=O)(=O)c4cccc(Oc5ccccc5)c4)cc3F)ccnc2cc1OCCCN1CCN(C)CC1 [Example 14, N-(3-Fluoro-4-{6-methoxy-7-[3-(4-methyl-piperazin-1-yl)-propoxy]-quinolin-4-yloxy}-phenyl)-3-phenoxy-benzenesulfonamide]
U118
  IC100: ≤ 12.5 µM
U138
  Total branching inhibition in Matrigel U138: ++ (IC100≦12.5 μM)
cells; Homo sapiens, Hs-578T, 16 h
  IC50: ≤ 5 µM

## COc1cc2c(Oc3ccc(NS(=O)(=O)c4ccccc4Cl)cc3F)ccnc2cc1OCCCN1CCCC(C)C1 (stereo not drawn) [Example 38, 2-Chloro-N-(3-fluoro-4-{6-methoxy-7-[3-(3-methyl-piperidin-1-yl)-propoxy]-quinolin-4-yloxy}-phenyl)-benzenesulfonamide]
A172
  IC100: ≤ 12.5 µM
U118
  IC100: > 12.5 µM
SF126
  IC100: ≤ 12.5 µM
cells; Homo sapiens, Hs-578T, 16 h
  IC50: 5 to 50 µM

## COc1cc2c(Oc3ccc(NS(=O)(=O)c4ccc(F)cc4F)cc3F)ccnc2cc1OCCCN1CCCC(C)C1 (stereo not drawn) [Example 47, 2,4-Difluoro-N-(3-fluoro-4-{6-methoxy-7-[3-(3-methyl-piperidin-1-yl)-propoxy]-quinolin-4-yloxy}-phenyl)-benzenesulfonamide]
A172
  IC100: > 12.5 µM
U118
  IC100: ≤ 12.5 µM
SF126
  IC100: ≤ 12.5 µM
cells; Homo sapiens, Hs-578T, 16 h
  IC50: ≤ 5 µM

## COC(=O)c1sccc1S(=O)(=O)Nc1ccc(Oc2ccnc3cc(OCCCN4CCCC(C)C4)c(OC)cc23)c(F)c1 (stereo not drawn) [Example 66, 3-(3-Fluoro-4-{6-methoxy-7-[3-(3-methyl-piperidin-1-yl)-propoxy]-quinolin-4-yloxy}-phenylsulfamoyl)-thiophene-2-carboxylic acid methyl ester]
HT29
  IC50: ≤ 12.5 µM
DU145
  IC50: ≤ 12.5 µM
A549
  IC50: ≤ 12.5 µM
Panc-1
  IC50: ≤ 12.5 µM
MDA-MB435s
  IC50: ≤ 12.5 µM
MiaPaca-2
  IC50: ≤ 12.5 µM
PC3 [1]
  IC50: ≤ 12.5 µM
Aspc-1
  IC50: ≤ 12.5 µM
786-0
  IC50: ≤ 12.5 µM
U373 [2]
  IC50: ≤ 12.5 µM
H460
  IC50: ≤ 12.5 µM
A172
  IC100: > 12.5 µM
NCI-H1299
  Total branching inhibition in Matrigel NCI-H1299: ++ (IC100≦12.5 μM)
U118
  IC100: ≤ 12.5 µM
PC3 [3]
  Total branching inhibition in Matrigel PC3: ++ (IC100≦12.5 μM)
SF126
  IC100: ≤ 12.5 µM
U87MG
  Total branching inhibition in Matrigel U87MG: ++ (IC100≦12.5 μM)
SK-MEL28
  Total branching inhibition in Matrigel SK-MEL28: ++ (IC100≦12.5 μM)
U373 [4]
  Total branching inhibition in Matrigel U373: ++ (IC100≦12.5 μM)
U138
  Total branching inhibition in Matrigel U138: ++ (IC100≦12.5 μM)

## COc1cc2c(Oc3ccc(NS(=O)(=O)c4c(F)cccc4F)cc3F)ccnc2cc1OCCCN1CCOCC1 [Example 77, 2,6-Difluoro-N-{3-fluoro-4-[6-methoxy-7-(3-morpholin-4-yl-propoxy)-quinolin-4-yloxy]-phenyl}-benzenesulfonamide]
A172
  IC100: > 12.5 µM
U118
  IC100: ≤ 12.5 µM
SF126
  IC100: ≤ 12.5 µM
cells; Homo sapiens, Hs-578T, 16 h
  IC50: ≤ 5 µM

## COc1cc2c(Oc3ccc(NS(=O)(=O)c4ccccc4C(F)(F)F)cc3Cl)ccnc2cc1OCCCN1CCN(C)CC1 [Example 87, N-(3-Chloro-4-{6-methoxy-7-[3-(4-methyl-piperazin-1-yl)-propoxy]-quinolin-4-yloxy}-phenyl)-2-trifluoromethyl-benzenesulfonamide]
A172
  IC100: ≤ 12.5 µM
U118
  IC100: ≤ 12.5 µM
SF126
  IC100: ≤ 12.5 µM
cells; Homo sapiens, Hs-578T, 16 h
  IC50: 5 to 50 µM
cells
  IC50: ≤ 5 µM

## COc1cc2c(Oc3ccc(NS(=O)(=O)c4ccccc4OC(F)(F)F)cc3F)ccnc2cc1OCCCN(C)C [Example 179, N-{4-[7-(3-Dimethylamino-propoxy)-6-methoxy-quinolin-4-yloxy]-3-fluoro-phenyl}-2-trifluoromethoxy-benzenesulfonamide]
A172
  IC100: > 12.5 µM
U118
  IC100: ≤ 12.5 µM
SF126
  IC100: ≤ 12.5 µM

## COc1cc2c(Oc3ccc(NS(=O)(=O)c4c(Cl)cccc4Cl)cc3F)ccnc2cc1OCCCN(C)C [Example 181, 2,6-Dichloro-N-{4-[7-(3-dimethylamino-propoxy)-6-methoxy-quinolin-4-yloxy]-3-fluoro-phenyl}-benzenesulfonamide]
A172
  IC100: > 12.5 µM
U118
  IC100: ≤ 12.5 µM
SF126
  IC100: ≤ 12.5 µM

## COC(=O)c1sccc1S(=O)(=O)Nc1ccc(Oc2ccnc3cc(OCCCN(C)C)c(OC)cc23)c(F)c1 [Example 184, 3-{4-[7-(3-Dimethylamino-propoxy)-6-methoxy-quinolin-4-yloxy]-3-fluoro-phenylsulfamoyl}-thiophene-2-carboxylic acid methyl ester]
A172
  IC100: > 12.5 µM
U118
  IC100: ≤ 12.5 µM
SF126
  IC100: ≤ 12.5 µM

## COc1cc2c(Oc3c(Cl)cc(NS(=O)(=O)c4c(F)cccc4F)cc3Cl)ccnc2cc1OCCCN1CCC(C)CC1 [Example 209, N-(3,5-Dichloro-4-{6-methoxy-7-[3-(4-methyl-piperidin-1-yl)-propoxy]-quinolin-4-yloxy}-phenyl)-2,6-difluoro-benzenesulfonamide]
A172
  IC100: ≤ 12.5 µM
U118
  IC100: ≤ 12.5 µM
SF126
  IC100: ≤ 12.5 µM

## COc1cc2c(Oc3c(Cl)cc(NS(=O)(=O)c4ccccc4C(F)(F)F)cc3Cl)ccnc2cc1OCCCN1CCC(C)CC1 [Example 210, N-(3,5-Dichloro-4-{6-methoxy-7-[3-(4-methyl-piperidin-1-yl)-propoxy]-quinolin-4-yloxy}-phenyl)-2-trifluoromethyl-benzenesulfonamide]
A172
  IC100: > 12.5 µM
U118
  IC100: ≤ 12.5 µM
SF126
  IC100: ≤ 12.5 µM
